Measured values published in patent publication US20130190289A1, “COMPOUNDS AND METHODS FOR THE TREATMENT OR PREVENTION OF FLAVIVIRUS INFECTIONS” (priority 2010, published 2013).
Read-outs that look alike come from different tables or passages of the source.

Tests used:
[1] = tested on: HCV replicon (genotype 1b) in Huh7 cell line ET; assay: microbe, parasite or virus in culture; format: cell-based, HCV genotype 1b; settings: Hepatitis C virus
[2] = [3H]Thymidine incorporation assay (cell toxicity); settings: human
[3] = Huh-7, read-out: HCV-Replicon-(Luci-ET) 1b_IC50
[4] = Huh-7, 96 h, read-out: HCV-Replicon (Luci-ET)-1b_IC50

Row | Compound | IC50 [1, 3] [µM] | CC50 at 72 h [2] [µM] | IC50 [1, 4] [µM]
1 | CC(C)C#Cc1cc(N(CC(=O)N(C)C)C(=O)C2CCC(C)CC2)c(C(=O)O)s1 (stereo not shown) [Compound 67] | < 0.1 | > 100 | –
2 | CC(C)(C)C#Cc1cc(N(CC(=O)N2CCSCC2)C(=O)[C@H]2CC[C@H](C)CC2)c(C(=O)O)s1 [Compound 127, 5-(3,3-dimethylbut-1-ynyl)-3-[(trans-4-methylcyclohexanecarbonyl)-(2-oxo-2-thiomorpholino-ethyl)amino]thiophene-2-carboxylic acid] | – | 10 to 100 | < 0.1
3 | CC(C)C#Cc1cc(N(CC(=O)N2CCNCC2)C(=O)C2CCC(C)CC2)c(C(=O)O)s1 (stereo not shown) [Compound 69] | < 0.1 | > 100 | –
4 | CC1(C#Cc2cc(N(CC(=O)N3CCOCC3)C(=O)[C@H]3CC[C@H](C)CC3)c(C(=O)O)s2)CC1 [Compound 144, 3-[(trans-4-methylcyclohexanecarbonyl)-(2-morpholino-2-oxo-ethyl)amino]-5-[2-(1-methylcyclopropyl)ethynyl]thiophene-2-carboxylic acid] | – | > 100 | < 0.1
5 | CO[C@@H](C)[C@H](C(=O)N1CCOCC1)N(c1cc(C#CC(C)(C)C)sc1C(=O)O)C(=O)[C@H]1CC[C@H](C)CC1 [Compound 72, 5-(3,3-dimethylbut-1-ynyl)-3-[[(1R,2S)-2-methoxy-1-(morpholine-4-carbonyl)propyl]-(trans-4-methylcyclohexanecarbonyl)amino]thiophene-2-carboxylic acid] | < 0.1 | > 100 | –
6 | C[C@@H](C(=O)N(C)CCO)N(c1cc(C#CC(C)(C)C)sc1C(=O)O)C(=O)[C@H]1CC[C@H](C)CC1 [Compound 37, 5-(3,3-Dimethylbut-1-ynyl)-3-[[(1S)-2-[2-hydroxyethyl(methyl)amino]-1-methyl-2-oxo-ethyl]-(trans-4-methylcyclohexanecarbonyl)amino]thiophene-2-carboxylic acid] | < 0.1 | > 100 | –
7 | CC(CC(=O)N1CCCC1)N(c1cc(C#CC(C)(C)C)sc1C(=O)O)C(=O)[C@H]1CC[C@H](C)CC1 (relative stereo) [Compound 101, 5-(3,3-dimethylbut-1-yn-1-yl)-3-((trans)-4-methyl-N-(4-oxo-4-(pyrrolidin-1-yl)butan-2-yl)cyclohexanecarboxamido)thiophene-2-carboxylic acid] | < 0.1 | 10 to 100 | –
8 | CCNC(=O)C[C@H](C)N(c1cc(C#CC(C)(C)C)sc1C(=O)O)C(=O)[C@H]1CC[C@H](C)CC1 [Compound 111, 5-(3,3-Dimethylbut-1-ynyl)-3-[[(1S)-3-(ethylamino)-1-methyl-3-oxo-propyl]-(trans-4-methylcyclohexanecarbonyl)amino]thiophene-2-carboxylic acid] | < 0.1 | > 100 | –
9 | C[C@@H](O)[C@@H](C(=O)N(C)C)N(c1cc(C#CC(C)(C)C)sc1C(=O)O)C(=O)[C@H]1CC[C@H](C)CC1 [Compound 59] | < 0.1 | > 100 | –
10 | CC[C@@H](C(=O)N(C)CC1CCOC1)N(c1cc(C#CC(C)(C)C)sc1C(=O)O)C(=O)[C@H]1CC[C@H](C)CC1 (stereo partly drawn) [Compound 80, 5-(3,3-Dimethylbut-1-ynyl)-3-[(trans-4-methylcyclohexanecarbonyl)-[(1S)-1-[methyl(tetrahydrofuran-3-ylmethyl)carbamoyl]propyl]amino]thiophene-2-carboxylic acid] | < 0.1 | > 100 | –
11 | C[C@@H]1CN(C(=O)[C@H](C)N(c2cc(C#CC(C)(C)C)sc2C(=O)O)C(=O)[C@H]2CC[C@H](C)CC2)C[C@H](C)O1 [Compound 48, 5-(3,3-Dimethylbut-1-ynyl)-3-[[(1S)-2-[(2R,6S)-2,6-dimethylmorpholin-4-yl]-1-methyl-2-oxo-ethyl]-(trans-4-methylcyclohexanecarbonyl)amino]thiophene-2-carboxylic acid] | < 0.1 | 10 to 100 | –
12 | CC[C@@H](C(=O)N(C)C1CCN(C)CC1)N(c1cc(C#CC(C)(C)C)sc1C(=O)O)C(=O)[C@H]1CC[C@H](C)CC1 [Compound 76, 5-(3,3-Dimethylbut-1-ynyl)-3-[(trans-4-methylcyclohexanecarbonyl)-[(1S)-1-[methyl-(1-methyl-4-piperidyl)carbamoyl]propyl]amino]thiophene-2-carboxylic acid] | < 0.1 | 10 to 100 | –
13 | COC1CN(C(=O)[C@H](C)N(c2cc(C#CC(C)(C)C)sc2C(=O)O)C(=O)[C@H]2CC[C@H](C)CC2)C1 [Compound 52, 5-(3,3-Dimethylbut-1-ynyl)-3-[[(1S)-2-(3-methoxyazetidin-1-yl)-1-methyl-2-oxo-ethyl]-(trans-4-methylcyclohexanecarbonyl)amino]thiophene-2-carboxylic acid] | < 0.1 | > 100 | –
14 | C[C@H]1CC[C@H](C(=O)N(CC(=O)N2CCOCC2)c2cc(-c3ccc(Oc4ccccc4)cc3)sc2C(=O)O)CC1 [Compound 151, 3-[(trans-4-methylcyclohexanecarbonyl)-(2-morpholino-2-oxo-ethyl)amino]-5-(4-phenoxyphenyl)thiophene-2-carboxylic acid] | – | 10 to 100 | 0.1 to 1
15 | C[C@@H](C(=O)NC1CCOCC1)N(c1cc(C#CC(C)(C)C)sc1C(=O)O)C(=O)[C@H]1CC[C@H](C)CC1 [Compound 19, 5-(3,3-Dimethylbut-1-ynyl)-3-[(trans-4-methylcyclohexanecarbonyl)-[(1S)-1-methyl-2-oxo-2-(tetrahydropyran-4-ylamino)ethyl]amino]thiophene-2-carboxylic acid] | < 0.1 | > 100 | –
16 | C[C@@H](C(=O)N1CC[C@@H](O)C1)N(c1cc(C#CC(C)(C)C)sc1C(=O)O)C(=O)[C@H]1CC[C@H](C)CC1 [Compound 32, 5-(3,3-Dimethylbut-1-ynyl)-3-[[(1S)-2-[(3R)-3-hydroxypyrrolidin-1-yl]-1-methyl-2-oxo-ethyl]-(trans-4-methylcyclohexanecarbonyl)amino]thiophene-2-carboxylic acid] | < 0.1 | > 100 | –
17 | C[C@@H](C(=O)NC1CCOC1)N(c1cc(C#CC(C)(C)C)sc1C(=O)O)C(=O)[C@H]1CC[C@H](C)CC1 (stereo partly drawn) [Compound 30, 5-(3,3-Dimethylbut-1-ynyl)-3-[(trans-4-methylcyclohexanecarbonyl)-[(1S)-1-methyl-2-oxo-2-(tetrahydrofuran-3-ylamino)ethyl]amino]thiophene-2-carboxylic acid] | < 0.1 | > 100 | –
18 | CN1CCN(C(=O)CN(c2cc(C#CC(C)(C)C)sc2C(=O)O)C(=O)[C@H]2CC[C@H](C)CC2)CC1 [Compound 119, 5-(3,3-dimethylbut-1-ynyl)-3-[(trans-4-methylcyclohexanecarbonyl)-[2-(4-methylpiperazin-1-yl)-2-oxo-ethyl]amino]thiophene-2-carboxylic acid] | < 0.1 | – | –
19 | CC(C)(C)C#Cc1cc(N(C(=O)[C@H]2CC[C@H](C)CC2)[C@H]2CCNC2=O)c(C(=O)O)s1 [Compound 120, 5-(3,3-dimethylbut-1-ynyl)-3-[(trans-4-methylcyclohexanecarbonyl)-[(3S)-2-oxopyrrolidin-3-yl]amino]thiophene-2-carboxylic acid] | 0.1 to 1 | – | –
20 | CN(C)CCN(C)C(=O)CN(c1cc(C#CC(C)(C)C)sc1C(=O)O)C(=O)[C@H]1CC[C@H](C)CC1 [Compound 118, 3-[[2-[2-Dimethylaminoethyl(methyl)amino]-2-oxo-ethyl]-(trans-4-methylcyclohexanecarbonyl)amino]-5-(3,3-dimethylbut-1-ynyl)thiophene-2-carboxylic acid] | < 0.1 | – | –
